According to article PMC10237672, “Design and synthesis of novel anti-urease imidazothiazole derivatives with promising antibacterial activity against Helicobacter pylori” (PLOS ONE, 2023):
Converted amounts (≈) assume the structure as drawn. Structures can show the parent of a compound that is named as a salt. Where two headings read alike, the source gives them in different places.

How the values were obtained:
Jack bean urease = target: T1, Jack bean urease (Canavalia ensiformis, UniProt P07374); assay: biochemical; type: biochemical
T1 construct: purchased Sigma Aldrich
T1 sequence (P07374 whole entry, looked up): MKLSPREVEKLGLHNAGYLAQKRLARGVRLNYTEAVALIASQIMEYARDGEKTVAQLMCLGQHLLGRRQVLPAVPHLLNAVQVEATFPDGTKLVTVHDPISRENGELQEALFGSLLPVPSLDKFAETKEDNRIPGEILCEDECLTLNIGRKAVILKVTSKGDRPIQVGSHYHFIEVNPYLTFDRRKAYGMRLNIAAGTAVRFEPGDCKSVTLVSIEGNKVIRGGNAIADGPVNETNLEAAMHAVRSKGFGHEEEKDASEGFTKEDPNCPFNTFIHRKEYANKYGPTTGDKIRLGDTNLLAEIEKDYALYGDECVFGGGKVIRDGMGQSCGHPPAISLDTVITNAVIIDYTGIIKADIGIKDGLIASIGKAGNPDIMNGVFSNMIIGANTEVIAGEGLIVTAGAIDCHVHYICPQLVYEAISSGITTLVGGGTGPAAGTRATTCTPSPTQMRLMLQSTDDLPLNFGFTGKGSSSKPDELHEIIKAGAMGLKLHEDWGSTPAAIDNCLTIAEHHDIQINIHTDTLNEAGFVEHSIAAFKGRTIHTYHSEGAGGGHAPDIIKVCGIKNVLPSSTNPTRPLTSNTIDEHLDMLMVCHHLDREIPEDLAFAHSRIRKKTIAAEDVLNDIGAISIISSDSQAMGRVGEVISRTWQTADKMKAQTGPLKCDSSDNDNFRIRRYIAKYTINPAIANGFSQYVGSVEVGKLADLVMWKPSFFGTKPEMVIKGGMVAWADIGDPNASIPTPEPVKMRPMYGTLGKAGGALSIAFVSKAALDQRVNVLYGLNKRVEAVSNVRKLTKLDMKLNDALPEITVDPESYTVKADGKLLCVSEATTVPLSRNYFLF
Protocol: Reaction mixture comprising 40 μL of buffer (K2HPO4: 10 mmol/L, urea: 100 mmol/L, […]: 10 mmol/L, EDTA: 1 /L mmol, pH = 8.2) and 5 U/mL enzyme (10 μL) were pre-incubated with 10 μL of synthesized compounds (1 mM) and substrate urea (1 mM) were incubated at room temperature in 96 well plate for half an hour. After the incubation at room temperature, absorbance was taken at specific wavelength (630 nm) employing a microplate reader (Bio-Tek, USA) with R1 and R2 reagents in each well. The reactions were measured in triplicate fashion. To calculate the inhibition percentage following equation was used.
Percentage inhibition = 100 –[tested compound/control compound] × 100.

H. pylori [1] = assay: MIC against H. pylori, agar dilution method; type: cell-based, Helicobacter pylori; settings: Helicobacter pylori, ATCC43504; H. pylori ATCC 43504, agar dilution; read-out: MIC value against H. pylori ± SEM
H. pylori [2] = assay: IC50 against H. pylori, micro broth dilution test; type: cell-based, Helicobacter pylori; settings: Helicobacter pylori, ATCC43504; H. pylori ATCC 43504, micro broth dilution, 72 h, OD 600 nm; read-out: IC50 value against H. pylori ± SEM
Caco-2 A-B permeability = type: in vitro ADME; settings: human, pH 6.5–7.4, test concentration = MIC against H. pylori (19-50 μM), reference drugs 10 μM
Protocol: The apparent permeability coefficient (Papp) of the test compound was calculated as follows: Papp(cm/s)=VR*CR,end/Δt*1/A*(CD,mid‐CR,mid) where VR is the volume of the receiver chamber. CR,end is the concentration of the test compound in the receiver chamber at the end time point, Δt is the incubation time and A is the surface area of the cell monolayer. CD,mid is the calculated mid-point concentration of the test compound in the donor side, which is the mean value of the donor concentration at time 0 minute and the donor concentration at the end time point. CR,mid is the mid-point concentration of the test compound in the receiver side, which is one half of the receiver concentration at the end time point. Concentrations of the test compound were expressed as peak areas of the test compound.
The recovery of the test compound was calculated as follows: Recovery(%)=VD*CD,end+VR*CR,end/VD*CD0*100 where VD and VR are the volumes of the donor and receiver chambers, respectively. CD,end is the concentration of the test compound in the donor sample at the end time point. CR,end is the concentration of the test compound in the receiver sample at the end time point. CD0 is the concentration of the test compound in the donor sample at time zero. Concentrations of the test compound are expressed as peak areas of the test compound.
Fluorescein was used as the cell monolayer integrity marker. Fluorescein permeability assessment (in the A-B direction at pH 7.4 on both sides) was executed after the permeability assay for the test compound.

Row | Compound | IC50 (Jack bean urease) | MIC (H. pylori [1]) | IC50 (H. pylori [2]) | melting point | Papp (Caco-2 A-B permeability) | recovery (Caco-2 A-B permeability) | IC50 (Jack bean urease; indophenol method, triplicate, thiourea positive control, read-out: Potency against urease IC50 ± SEM)
1 | O=S(=O)(Oc1cccc(-c2nc3sccn3c2-c2ccccc2)c1)c1ccccc1 [Compound 1e, 3-(5-Phenylimidazo[2,1-b]thiazol-6-yl)phenyl benzenesulfonate] | 4.3 ± 0.01 µM | 400 µM | 153 ± 33 µM | – | – | – | –
2 | CS(=O)(=O)c1cccc(-c2c(-c3cccc(OS(=O)(=O)c4ccccc4)c3)nc3sccn23)c1 (as salt: benzenesulfonate) [Compound 2e, 3-(5-(3-(Methylsulfonyl)phenyl)imidazo[2,1-b]thiazol-6-yl)phenyl benzenesulfonate] | – | – | – | 193 to 195 °C | – | – | –
3 | CC(C)NCC(O)COc1cccc2ccccc12 (centres unmarked) [Propranolol, reference compound] | – | – | – | – | 39 ± 0.44 ×10⁻⁶ cm/s | 88.7% | –
4 | CCS(=O)(=O)Oc1cccc(-c2nc3sccn3c2-c2cccc(S(C)(=O)=O)c2)c1 [Compound 2b, 3-(5-(3-(Methylsulfonyl)phenyl)imidazo[2,1-b]thiazol-6-yl)phenyl ethanesulfonate] | 4.97 ± 0.11 µM | 800 µM | 255 ± 35 µM | 206 to 209 °C | – | – | –
5 | CC(CCc1ccccc1)NCC(O)c1ccc(O)c(C(N)=O)c1 (centres unmarked) [Labetalol, reference compound] | – | – | – | – | 19.2 ± 0.56 ×10⁻⁶ cm/s | 99.1% | –
6 | O=S(=O)(Oc1cccc(-c2nc3sccn3c2-c2ccccc2)c1)c1ccc(F)cc1 [Compound 1f, 3-(5-Phenylimidazo[2,1-b]thiazol-6-yl)phenyl 4-fluorobenzenesulfonate] | 5.17 ± 0.01 µM | 200 µM (≈ 90.1 µg/mL) | 147 µM | – | – | – | –
7 | O=S(=O)(Oc1cccc(-c2nc3sccn3c2-c2ccccc2)c1)N1CCCCC1 [Compound 1j, 3-(5-Phenylimidazo[2,1-b]thiazol-6-yl)phenyl piperidine-1-sulfonate] | 6.97 ± 0.09 µM | 200 µM (≈ 87.9 µg/mL) | 131 ± 2 µM | 112 to 115 °C | – | – | –
8 | CS(=O)(=O)c1cccc(-c2c(-c3cccc(OS(=O)(=O)N4CCCCC4)c3)nc3sccn23)c1 [Compound 2j, 3-(5-(3-(Methylsulfonyl)phenyl)imidazo[2,1-b]thiazol-6-yl)phenyl piperidine-1-sulfonate] | 5.82 ± 0.02 µM | 800 µM (≈ 414 µg/mL) | 288 ± 18 µM | 76 to 79 °C | – | – | –
9 | O=S(=O)(Oc1cccc(-c2nc3sccn3c2-c2ccccc2)c1)c1ccc(F)cc1 (as salt: benzenesulfonate) [Compound 1f, 3-(5-Phenylimidazo[2,1-b]thiazol-6-yl)phenyl 4-fluorobenzenesulfonate] | – | – | – | 109 to 111 °C | – | – | –
10 | CNS(=O)(=O)Oc1cccc(-c2nc3sccn3c2-c2ccccc2)c1 [Compound 1i, 3-(5-Phenylimidazo[2,1-b]thiazol-6-yl)phenyl methylsulfamate] | 5.51 ± 0.17 µM | 800 µM (≈ 308 µg/mL) | 285 ± 92 µM | 161 to 164 °C | – | – | –
11 | O=S(=O)(Oc1cccc(-c2nc3sccn3c2-c2ccccc2)c1)c1ccccc1 (as salt: benzenesulfonate) [Compound 1e, 3-(5-Phenylimidazo[2,1-b]thiazol-6-yl)phenyl benzenesulfonate] | – | – | – | 119 to 122 °C | – | – | –
12 | CCCS(=O)(=O)Oc1cccc(-c2nc3sccn3c2-c2ccccc2)c1 [Compound 1c, 3-(5-Phenylimidazo[2,1-b]thiazol-6-yl)phenyl propane-1-sulfonate] | 4.04 ± 0.09 µM | 800 µM (≈ 319 µg/mL) | 364 µM | 120 to 123 °C | – | – | –
13 | CS(=O)(=O)c1cccc(-c2c(-c3cccc(OS(=O)(=O)c4ccccc4)c3)nc3sccn23)c1 [Compound 2e, 3-(5-(3-(Methylsulfonyl)phenyl)imidazo[2,1-b]thiazol-6-yl)phenyl benzenesulfonate] | 5.21 ± 0.03 µM | 409 ± 391 µM | 331 ± 21 µM | – | – | – | –
14 | CS(=O)(=O)Oc1cccc(-c2nc3sccn3c2-c2cccc(S(C)(=O)=O)c2)c1 [Compound 2a, 3-(5-(3-(Methylsulfonyl)phenyl)imidazo[2,1-b]thiazol-6-yl)phenyl methanesulfonate] | 5.01 ± 0.03 µM | 250 ± 50 µM | 118 ± 5 µM | 159 to 160 °C | – | – | –
15 | CNS(=O)(=O)Oc1cccc(-c2nc3sccn3c2-c2cccc(S(C)(=O)=O)c2)c1 [Compound 2i, 3-(5-(3-(Methylsulfonyl)phenyl)imidazo[2,1-b]thiazol-6-yl)phenyl methylsulfamate] | 4.74 ± 0.21 µM | 250 ± 50 µM (≈ 116 µg/mL) | 123 ± 15 µM | > 250 °C | – | – | –
16 | CCS(=O)(=O)Oc1cccc(-c2nc3sccn3c2-c2ccccc2)c1 [Compound 1b, 3-(5-Phenylimidazo[2,1-b]thiazol-6-yl)phenyl ethanesulfonate] | 4.01 ± 0.11 µM | 800 µM | 82 ± 29 µM | 119 to 121 °C | – | – | –
17 | Cc1ccc(S(=O)(=O)Oc2cccc(-c3nc4sccn4c3-c3ccccc3)c2)cc1 [Compound 1g, 3-(5-Phenylimidazo[2,1-b]thiazol-6-yl)phenyl 4-methylbenzenesulfonate] | 3.22 ± 0.06 µM | 150 ± 29 µM (≈ 67 µg/mL) | 37 ± 6 µM | 103 to 106 °C | – | – | –
18 | CS(=O)(=O)c1cccc(-c2c(-c3cccc(OS(=O)(=O)c4ccc(F)cc4)c3)nc3sccn23)c1 (as salt: benzenesulfonate) [Compound 2f, 3-(5-(3-(Methylsulfonyl)phenyl)imidazo[2,1-b]thiazol-6-yl)phenyl 4-fluorobenzenesulfonate] | – | – | – | 103 to 105 °C | – | – | –
19 | NC(N)=S [thiourea, reference compound] | – | – | – | – | – | – | 22.3 ± 0.031 µM
20 | CS(=O)(=O)c1cccc(-c2c(-c3cccc(OS(N)(=O)=O)c3)nc3sccn23)c1 [Compound 2h, 3-(5-(3-(Methylsulfonyl)phenyl)imidazo[2,1-b]thiazol-6-yl)phenyl sulfamate] | 4.72 ± 0.13 µM | 400 µM (≈ 180 µg/mL) | 225 ± 5 µM | 150 to 153 °C | – | – | –
21 | Cc1ccc(S(=O)(=O)Oc2cccc(-c3nc4sccn4c3-c3cccc(S(C)(=O)=O)c3)c2)cc1 [Compound 2g, 3-(5-(3-(Methylsulfonyl)phenyl)imidazo[2,1-b]thiazol-6-yl)phenyl 4-methylbenzenesulfonate] | 5.59 ± 0.04 µM | 275 ± 125 µM (≈ 144 µg/mL) | 103 ± 88 µM | 172 to 174 °C | – | – | –
